{
  "source": "PubChem BioAssay AID1963840",
  "about": "(Molecular Pharmacology Branch, DTP, NCI, 2024);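 note: spheroids exposed to compounds for seven days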;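 for viability, T/C: 100% = DMSO vehicle control viability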",
  "tested_on": "695427-040-R-J1-PDC complex spheroid viability",
  "assay": "Anticancer human tumor 695427-040-R-J1-PDC patient-derived colon adenocarcinoma cell line growth inhibition [POLQ]",
  "settings": "for IC50: curve of first compound; for viability, T/C: stronger effect = lower value",
  "how_it_was_run": "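Complex spheroid viability model combining PDC tumour cells with endothelial (HUVEC) and MSC stromal cells. Novobiocin, ART-558 or RP6685 were tested singly and in combination with standard and investigational anticancer drugs. Each was titrated in half-log steps from near clinical Cmax, or from 10 microM where Cmax was unknown.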",
  "key": {"[1]": {"settings": "second compound 0.0316 µM, first compound 0.0316 µM"}, "[2]": {"settings": "second compound 0.0316 µM, first compound 0.1 µM"}, "[3]": {"settings": "second compound 0.0316 µM, first compound 0.316 µM"}, "[4]": {"settings": "second compound 0.0316 µM, first compound 1 µM"}, "[5]": {"settings": "second compound 0.0316 µM, first compound 3.16 µM"}, "[6]": {"settings": "second compound 0.0316 µM, first compound 10 µM"}, "[7]": {"settings": "second compound 0.1 µM, first compound 0.0316 µM"}, "[8]": {"settings": "second compound 0.1 µM, first compound 0.1 µM"}, "[9]": {"settings": "second compound 0.1 µM, first compound 0.316 µM"}, "[10]": {"settings": "second compound 0.1 µM, first compound 1 µM"}, "[11]": {"settings": "second compound 0.1 µM, first compound 3.16 µM"}, "[12]": {"settings": "second compound 0.1 µM, first compound 10 µM"}, "[13]": {"settings": "second compound 0.316 µM, first compound 0.0316 µM"}, "[14]": {"settings": "second compound 0.316 µM, first compound 0.1 µM"}, "[15]": {"settings": "second compound 0.316 µM, first compound 0.316 µM"}, "[16]": {"settings": "second compound 0.316 µM, first compound 1 µM"}, "[17]": {"settings": "second compound 0.316 µM, first compound 3.16 µM"}, "[18]": {"settings": "second compound 0.316 µM, first compound 10 µM"}, "[19]": {"settings": "second compound 1 µM, first compound 0.0316 µM"}, "[20]": {"settings": "second compound 1 µM, first compound 0.1 µM"}, "[21]": {"settings": "second compound 1 µM, first compound 0.316 µM"}, "[22]": {"settings": "second compound 1 µM, first compound 1 µM"}, "[23]": {"settings": "second compound 1 µM, first compound 3.16 µM"}, "[24]": {"settings": "second compound 1 µM, first compound 10 µM"}, "[25]": {"settings": "second compound 3.16 µM, first compound 0.0316 µM"}, "[26]": {"settings": "second compound 3.16 µM, first compound 0.1 µM"}, "[27]": {"settings": "second compound 3.16 µM, first compound 0.316 µM"}, "[28]": {"settings": "second compound 3.16 µM, first compound 1 µM"}, "[29]": {"settings": "second compound 3.16 µM, first compound 3.16 µM"}, "[30]": {"settings": "second compound 3.16 µM, first compound 10 µM"}, "[31]": {"settings": "second compound 10 µM, first compound 0.0316 µM"}, "[32]": {"settings": "second compound 10 µM, first compound 0.1 µM"}, "[33]": {"settings": "second compound 10 µM, first compound 0.316 µM"}, "[34]": {"settings": "second compound 10 µM, first compound 1 µM"}, "[35]": {"settings": "second compound 10 µM, first compound 3.16 µM"}, "[36]": {"settings": "second compound 10 µM, first compound 10 µM"}},
  "data": [
    {"smiles": "CCc1cc2c(N3CCc4c(cc(Cn5ccnc5)cc4-c4cn(C)nc4C(F)(F)F)C3=O)ccnc2c(OC)n1", "note": "+ Cc1cccc(N(C)C(=O)C2C(O)CCN2c2nc(C)cc(C(F)(F)F)c2C#N)c1", "values": [
      {"measurement": "IC50", "setting": "second compound 0.0316 µM", "value": "> 10", "unit": "µM"},
      {"measurement": "IC50", "setting": "second compound 0.1 µM", "value": "> 10", "unit": "µM"},
      {"measurement": "IC50", "setting": "second compound 0.316 µM", "value": "> 10", "unit": "µM"},
      {"measurement": "IC50", "setting": "second compound 1 µM", "value": "> 10", "unit": "µM"},
      {"measurement": "IC50", "setting": "second compound 3.16 µM", "value": "> 10", "unit": "µM"},
      {"measurement": "IC50", "setting": "second compound 10 µM", "value": "> 10", "unit": "µM"},
      {"measurement": "viability, T/C", "setting": "[1]", "value": 97, "unit": "%"},
      {"measurement": "viability, T/C", "setting": "[2]", "value": 99.7, "unit": "%"},
      {"measurement": "viability, T/C", "setting": "[3]", "value": 98.2, "unit": "%"},
      {"measurement": "viability, T/C", "setting": "[4]", "value": 104, "unit": "%"},
      {"measurement": "viability, T/C", "setting": "[5]", "value": 105, "unit": "%"},
      {"measurement": "viability, T/C", "setting": "[6]", "value": 92.4, "unit": "%"},
      {"measurement": "viability, T/C", "setting": "[7]", "value": 110, "unit": "%"},
      {"measurement": "viability, T/C", "setting": "[8]", "value": 107, "unit": "%"},
      {"measurement": "viability, T/C", "setting": "[9]", "value": 109, "unit": "%"},
      {"measurement": "viability, T/C", "setting": "[10]", "value": 103, "unit": "%"},
      {"measurement": "viability, T/C", "setting": "[11]", "value": 114, "unit": "%"},
      {"measurement": "viability, T/C", "setting": "[12]", "value": 89.3, "unit": "%"},
      {"measurement": "viability, T/C", "setting": "[13]", "value": 105, "unit": "%"},
      {"measurement": "viability, T/C", "setting": "[14]", "value": 109, "unit": "%"},
      {"measurement": "viability, T/C", "setting": "[15]", "value": 92.8, "unit": "%"},
      {"measurement": "viability, T/C", "setting": "[16]", "value": 113, "unit": "%"},
      {"measurement": "viability, T/C", "setting": "[17]", "value": 109, "unit": "%"},
      {"measurement": "viability, T/C", "setting": "[18]", "value": 81.3, "unit": "%"},
      {"measurement": "viability, T/C", "setting": "[19]", "value": 103, "unit": "%"},
      {"measurement": "viability, T/C", "setting": "[20]", "value": 108, "unit": "%"},
      {"measurement": "viability, T/C", "setting": "[21]", "value": 105, "unit": "%"},
      {"measurement": "viability, T/C", "setting": "[22]", "value": 103, "unit": "%"},
      {"measurement": "viability, T/C", "setting": "[23]", "value": 102, "unit": "%"},
      {"measurement": "viability, T/C", "setting": "[24]", "value": 82.7, "unit": "%"},
      {"measurement": "viability, T/C", "setting": "[25]", "value": 101, "unit": "%"},
      {"measurement": "viability, T/C", "setting": "[26]", "value": 94.9, "unit": "%"},
      {"measurement": "viability, T/C", "setting": "[27]", "value": 95.2, "unit": "%"},
      {"measurement": "viability, T/C", "setting": "[28]", "value": 103, "unit": "%"},
      {"measurement": "viability, T/C", "setting": "[29]", "value": 99.8, "unit": "%"},
      {"measurement": "viability, T/C", "setting": "[30]", "value": 85.5, "unit": "%"},
      {"measurement": "viability, T/C", "setting": "[31]", "value": 98, "unit": "%"},
      {"measurement": "viability, T/C", "setting": "[32]", "value": 86.4, "unit": "%"},
      {"measurement": "viability, T/C", "setting": "[33]", "value": 93.6, "unit": "%"},
      {"measurement": "viability, T/C", "setting": "[34]", "value": 97.8, "unit": "%"},
      {"measurement": "viability, T/C", "setting": "[35]", "value": 103, "unit": "%"},
      {"measurement": "viability, T/C", "setting": "[36]", "value": 83.6, "unit": "%"}
    ]},
    {"smiles": "C=CC(=O)N1CCN(c2nc(=O)n(-c3c(C)ccnc3C(C)C)c3nc(-c4c(O)cccc4F)c(F)cc23)C(C)C1", "note": "(centres undefined) + Cc1cccc(N(C)C(=O)C2C(O)CCN2c2nc(C)cc(C(F)(F)F)c2C#N)c1", "values": [
      {"measurement": "IC50", "setting": "second compound 0.0316 µM", "value": "> 10", "unit": "µM"},
      {"measurement": "IC50", "setting": "second compound 0.1 µM", "value": "> 10", "unit": "µM"},
      {"measurement": "IC50", "setting": "second compound 0.316 µM", "value": "> 10", "unit": "µM"},
      {"measurement": "IC50", "setting": "second compound 1 µM", "value": "> 10", "unit": "µM"},
      {"measurement": "IC50", "setting": "second compound 3.16 µM", "value": "> 10", "unit": "µM"},
      {"measurement": "IC50", "setting": "second compound 10 µM", "value": "> 10", "unit": "µM"},
      {"measurement": "viability, T/C", "setting": "[1]", "value": 98.8, "unit": "%"},
      {"measurement": "viability, T/C", "setting": "[2]", "value": 93.9, "unit": "%"},
      {"measurement": "viability, T/C", "setting": "[3]", "value": 101, "unit": "%"},
      {"measurement": "viability, T/C", "setting": "[4]", "value": 105, "unit": "%"},
      {"measurement": "viability, T/C", "setting": "[5]", "value": 107, "unit": "%"},
      {"measurement": "viability, T/C", "setting": "[6]", "value": 110, "unit": "%"},
      {"measurement": "viability, T/C", "setting": "[7]", "value": 96.2, "unit": "%"},
      {"measurement": "viability, T/C", "setting": "[8]", "value": 92.4, "unit": "%"},
      {"measurement": "viability, T/C", "setting": "[9]", "value": 101, "unit": "%"},
      {"measurement": "viability, T/C", "setting": "[10]", "value": 108, "unit": "%"},
      {"measurement": "viability, T/C", "setting": "[11]", "value": 99.9, "unit": "%"},
      {"measurement": "viability, T/C", "setting": "[12]", "value": 104, "unit": "%"},
      {"measurement": "viability, T/C", "setting": "[13]", "value": 103, "unit": "%"},
      {"measurement": "viability, T/C", "setting": "[14]", "value": 103, "unit": "%"},
      {"measurement": "viability, T/C", "setting": "[15]", "value": 101, "unit": "%"},
      {"measurement": "viability, T/C", "setting": "[16]", "value": 104, "unit": "%"},
      {"measurement": "viability, T/C", "setting": "[17]", "value": 101, "unit": "%"},
      {"measurement": "viability, T/C", "setting": "[18]", "value": 106, "unit": "%"},
      {"measurement": "viability, T/C", "setting": "[19]", "value": 98.1, "unit": "%"},
      {"measurement": "viability, T/C", "setting": "[20]", "value": 98.5, "unit": "%"},
      {"measurement": "viability, T/C", "setting": "[21]", "value": 97.8, "unit": "%"},
      {"measurement": "viability, T/C", "setting": "[22]", "value": 99.4, "unit": "%"},
      {"measurement": "viability, T/C", "setting": "[23]", "value": 97.5, "unit": "%"},
      {"measurement": "viability, T/C", "setting": "[24]", "value": 102, "unit": "%"},
      {"measurement": "viability, T/C", "setting": "[25]", "value": 97.8, "unit": "%"},
      {"measurement": "viability, T/C", "setting": "[26]", "value": 84.5, "unit": "%"},
      {"measurement": "viability, T/C", "setting": "[27]", "value": 97.9, "unit": "%"},
      {"measurement": "viability, T/C", "setting": "[28]", "value": 93.4, "unit": "%"},
      {"measurement": "viability, T/C", "setting": "[29]", "value": 103, "unit": "%"},
      {"measurement": "viability, T/C", "setting": "[30]", "value": 107, "unit": "%"},
      {"measurement": "viability, T/C", "setting": "[31]", "value": 87.8, "unit": "%"},
      {"measurement": "viability, T/C", "setting": "[32]", "value": 91.8, "unit": "%"},
      {"measurement": "viability, T/C", "setting": "[33]", "value": 87.5, "unit": "%"},
      {"measurement": "viability, T/C", "setting": "[34]", "value": 101, "unit": "%"},
      {"measurement": "viability, T/C", "setting": "[35]", "value": 102, "unit": "%"},
      {"measurement": "viability, T/C", "setting": "[36]", "value": 105, "unit": "%"}
    ]}
  ]
}
